Measurements from patent US20230117034A1, “PYRAZOLOTRIAZINES” (Bayer Aktiengesellschaft, priority 2019, published 2023).

What was measured:
[1] = tested on: CAL-120, human breast adenocarcinoma cells; assay: Proliferation assay CAL-120 (crystal violet, 4 days); format: cell-based; conditions: Homo sapiens, CAL-120, 96 h, CAL-120 cells, median, read-out: Prolif-CAL-120, IC50-[mol/l] (median)
Summary of the method: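 IC50 from a 4-parameter fit of crystal violet absorbance (595 nm), scaled between the day-of-dosing plate (0%) and vehicle cells (100%). MDA-MB-231 or CAL-120 cells were treated for 4 days with 0.01–10 micromol/L compound in 0.1% DMSO after 24 h attachment.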

CDK12/CycK = CDK12/CycK (Homo sapiens, UniProt Q9NYV4); assay: CDK12/CycK high ATP kinase assay (TR-FRET, 2 mM ATP); format: biochemical; conditions: 2 mM ATP (high ATP); median; read-out: CDK12/CyclinK, 2 mM ATP (high ATP), IC50-[mol/l] (median)
CDK12/CycK, sequence (Q9NYV4 with tags, fused parts or gaps): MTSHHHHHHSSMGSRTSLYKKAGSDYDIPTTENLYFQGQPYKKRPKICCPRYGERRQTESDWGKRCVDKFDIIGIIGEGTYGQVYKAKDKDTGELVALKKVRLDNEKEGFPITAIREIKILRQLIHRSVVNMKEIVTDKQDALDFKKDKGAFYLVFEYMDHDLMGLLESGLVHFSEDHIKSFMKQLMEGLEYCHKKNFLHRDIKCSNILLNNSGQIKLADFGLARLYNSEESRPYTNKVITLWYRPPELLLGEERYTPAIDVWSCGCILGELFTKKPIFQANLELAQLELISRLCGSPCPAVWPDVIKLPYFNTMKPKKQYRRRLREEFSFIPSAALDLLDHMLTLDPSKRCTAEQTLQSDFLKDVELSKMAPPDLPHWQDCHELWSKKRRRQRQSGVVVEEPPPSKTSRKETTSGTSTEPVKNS
CDK12/CycK, sequence (O75909 1-300 partner limits assumed): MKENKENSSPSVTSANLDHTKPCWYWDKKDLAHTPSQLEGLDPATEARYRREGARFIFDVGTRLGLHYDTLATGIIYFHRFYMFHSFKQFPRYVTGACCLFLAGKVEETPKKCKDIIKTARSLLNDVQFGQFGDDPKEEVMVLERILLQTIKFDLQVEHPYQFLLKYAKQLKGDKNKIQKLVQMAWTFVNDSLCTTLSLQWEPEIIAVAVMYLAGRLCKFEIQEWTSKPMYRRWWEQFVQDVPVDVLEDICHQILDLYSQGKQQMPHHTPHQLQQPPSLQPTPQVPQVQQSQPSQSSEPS
Summary of the method: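 Read-out is TR-FRET (Eu-anti-rabbit IgG, anti-phospho-c-Myc Ser62 antibody, streptavidin-XL665) after EDTA stop. Reaction ran 60 min at 22 °C using 1 µM biotin-peptide and high ATP (2 mM) with roughly 0.75 nM recombinant CDK12/CycK, after 15 min compound pre-binding; normalised emission ratios yield IC50.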

Compound | IC50 [1] | IC50 (CDK12/CycK)
OCCNc1nc(NCc2nc3ccccc3[nH]2)n2ncc(Br)c2n1 [Example 228, 2-[(4-{[(1H-benzimidazol-2-yl)methyl]amino}-8-bromopyrazolo[1,5-a][1,3,5]triazin-2-yl)amino]ethan-1-ol] | 273 nM | > 20000 nM
Cc1cc(-c2cnn3c(NCc4nc5ccccc5[nH]4)nc(N4CCN(C)CC4)nc23)ccn1 [Example 243, N-[(1H-benzimidazol-2-yl)methyl]-2-(4-methylpiperazin-1-yl)-8-(2-methylpyridin-4-yl)pyrazolo[1,5-a][1,3,5]triazin-4-amine] | 3670 nM | > 20000 nM
CCN(C)c1nc(NCc2nc3ccccc3[nH]2)n2ncc(Br)c2n1 [Example 233, N4-(1H-benzimidazol-2-ylmethyl)-8-bromo-N2-ethyl-N2-methyl-pyrazolo[1,5-a][1,3,5]triazine-2,4-diamine] | 158 nM | 7540 nM
FC(F)(F)c1cnn2c(NCc3nc4ccccc4[nH]3)nc(N3CCOCC3)nc12 [Example 241, N-[(1H-benzimidazol-2-yl)methyl]-2-(morpholin-4-yl)-8-(trifluoromethyl) pyrazolo[1,5-a][1,3,5]triazin-4-amine] | 29.6 nM | 805 nM
CN(CCO)c1nc(NCc2nc3ccccc3[nH]2)n2ncc(Br)c2n1 [Example 237, 2-[(4-{[(1H-benzimidazol-2-yl)methyl]amino}-8-bromopyrazolo[1,5-a][1,3,5]triazin-2-yl)(methyl)amino]ethan-1-ol] | 164 nM | 7350 nM
CN1C[C@H]2C[C@@H]1CN2c1nc(NCc2nc3ccccc3[nH]2)n2ncc(Br)c2n1 [Example 218, N-[(1H-benzimidazol-2-yl)methyl]-8-bromo-2-[(1R,4R)-5-methyl-2,5-diazabicyclo[2.2.1]heptan-2-yl]pyrazolo[1,5-a][1,3,5]triazin-4-amine] | 21.1 nM | > 20000 nM
OC[C@@H]1CCCCN1c1nc(NCc2nc3cc(F)ccc3[nH]2)n2ncc(C3CC3)c2n1 [Example 191, [(2S)-1-(8-cyclopropyl-4-{[(5-fluoro-1H-benzimidazol-2-yl)methyl]amino}pyrazolo[1,5-a][1,3,5]triazin-2-yl)piperidin-2-yl]methanol] | 1.16 nM | 332 nM
CO[C@H]1CCN(c2nc(NCc3nc4ccccc4[nH]3)n3ncc(Br)c3n2)C1 [Example 222, N-[(1H-benzimidazol-2-yl)methyl]-8-bromo-2-[(3S)-3-methoxypyrrolidin-1-yl]pyrazolo[1,5-a][1,3,5]triazin-4-amine] | 107 nM | 6010 nM
COc1cccc2[nH]c(CNc3nc(N4C[C@@H]5CCCN[C@@H]5C4)nc4c(C5CC5)cnn34)nc12 [Example 214, 8-cyclopropyl-N-[(4-methoxy-1H-benzimidazol-2-yl)methyl]-2-[(4aS,7aS)-octahydro-6H-pyrrolo[3,4-b]pyridin-6-yl]pyrazolo[1,5-a][1,3,5]triazin-4-amine] | 6.2 nM | 8090 nM
Brc1cnn2c(NCc3nc4ccccc4[nH]3)nc(N3CCNC4(CC4)C3)nc12 [Example 176, N-[(1H-benzimidazol-2-yl)methyl]-8-bromo-2-(4,7-diazaspiro[2.5]octan-7-yl)pyrazolo[1,5-a][1,3,5]triazin-4-amine] | 4.37 nM | 2330 nM
Fc1ccc2[nH]c(CNc3nc(N4C[C@@H]5CCCN[C@@H]5C4)nc4c(C5CC5)cnn34)nc2c1 [Example 180, 8-cyclopropyl-N-[(5-fluoro-1H-benzimidazol-2-yl)methyl]-2-[(4aS, 7aS)-octahydro-6H-pyrrolo[3,4-b]pyridin-6-yl]pyrazolo[1,5-a][1,3,5]triazin-4-amine] | 1.27 nM | 17300 nM
Cc1ccc2[nH]c(CNc3nc(N4C[C@@H](C)N[C@@H](C)C4)nc4c(C5CC5)cnn34)nc2c1 [Example 194, 8-cyclopropyl-2-[(3R,5S)-3,5-dimethylpiperazin-1-yl]-N-[(5-methyl-1H-benzimidazol-2-yl)methyl]pyrazolo[1,5-a][1,3,5]triazin-4-amine] | 1.16 nM | 3700 nM
OC[C@@H]1CCCCN1c1nc(NCc2nc3c(F)c(F)ccc3[nH]2)n2ncc(C3CC3)c2n1 [Example 184, [(2S)-1-(8-cyclopropyl-4-{[(4,5-difluoro-1H-benzimidazol-2-yl)methyl]amino}pyrazolo[1,5-a][1,3,5]triazin-2-yl)piperidin-2-yl]methanol] | 9.27 nM | 13.2 nM
CN1CC[C@H]2CN(c3nc(NCc4nc5ccccc5[nH]4)n4ncc(Br)c4n3)C[C@H]21 [Example 179, N-[(1H-benzimidazol-2-yl)methyl]-8-bromo-2-[(3aS,6aS)-1-methylhexahydropyrrolo[3,4-b]pyrrol-5 (1H)-yl]pyrazolo[1,5-a][1,3,5]triazin-4-amine] | 16.7 nM | > 20000 nM
COc1cccc2[nH]c(CNc3nc(N4CCNCC4)nc4c(C5CC5)cnn34)nc12 [Example 211, 8-cyclopropyl-N-[(4-methoxy-1H-benzimidazol-2-yl)methyl]-2-(piperazin-1-yl)pyrazolo[1,5-a][1,3,5]triazin-4-amine] | 2.29 nM | 2740 nM
Brc1cnn2c(NCc3nc4ccccc4[nH]3)nc(N3CC4CCC(C3)N4)nc12 [Example 232, N-(1H-benzimidazol-2-ylmethyl)-8-bromo-2-(3,8-diazabicyclo[3.2.1]octan-3-yl)pyrazolo[1,5-a][1,3,5]triazin-4-amine] | 5.25 nM | 5280 nM
CN1CC[C@@H]2CN(c3nc(NCc4nc5ccccc5[nH]4)n4ncc(Br)c4n3)C[C@@H]21 [Example 217, N-[(1H-benzimidazol-2-yl)methyl]-8-bromo-2-[(3aR,6aR)-1-methylhexahydropyrrolo[3,4-b]pyrrol-5 (1H)-yl]pyrazolo[1,5-a][1,3,5]triazin-4-amine] | 44.9 nM | > 20000 nM
Fc1cccc2[nH]c(CNc3nc(N4CCNCC4)nc4c(C5CC5)cnn34)nc12 [Example 182, 8-cyclopropyl-N-[(4-fluoro-1H-benzimidazol-2-yl)methyl]-2-(piperazin-1-yl)pyrazolo[1,5-a][1,3,5]triazin-4-amine] | 3.7 nM | 2040 nM
C[C@@H]1CN(c2nc(NCc3nc4c(F)cccc4[nH]3)n3ncc(C4CC4)c3n2)C[C@H](C)N1 [Example 186, 8-cyclopropyl-2-[(3R,5S)-3,5-dimethylpiperazin-1-yl]-N-[(4-fluoro-1H-benzimidazol-2-yl)methyl]pyrazolo[1,5-a][1,3,5]triazin-4-amine] | 4.2 nM | 2720 nM
Cc1ccc2[nH]c(CNc3nc(N4C[C@@H](C)N[C@@H](C)C4)nc4c(Br)cnn34)nc2c1 [Example 209, 8-bromo-2-[(3R,5S)-3,5-dimethylpiperazin-1-yl]-N-[(5-methyl-1H-benzimidazol-2-yl)methyl]pyrazolo[1,5-a][1,3,5]triazin-4-amine] | 1.28 nM | 6800 nM
CN(CC(C)(C)O)c1nc(NCc2nc3ccccc3[nH]2)n2ncc(Br)c2n1 [Example 238, 1-[(4-{[(1H-benzimidazol-2-yl)methyl]amino}-8-bromopyrazolo[1,5-a][1,3,5]triazin-2-yl)(methyl)amino]-2-methylpropan-2-ol] | 36.3 nM | 1790 nM
CC1(O)CCN(c2nc(NCc3nc4ccccc4[nH]3)n3ncc(Br)c3n2)C1 (centres unmarked) [Example 225, 1-[4-(1H-benzimidazol-2-ylmethylamino)-8-bromo-pyrazolo[1,5-a][1,3,5]triazin-2-yl]-3-methyl-pyrrolidin-3-ol] | 62.7 nM | 10300 nM
C[C@@H]1CN(c2nc(NCc3nc4cc(F)ccc4[nH]3)n3ncc(C4CC4)c3n2)C[C@H](C)N1 [Example 175, 8-cyclopropyl-2-[(3R,5S)-3,5-dimethylpiperazin-1-yl]-N-[(5-fluoro-1H-benzimidazol-2-yl)methyl]pyrazolo[1,5-a][1,3,5]triazin-4-amine] | 1.15 nM | 11000 nM
Fc1ccc2[nH]c(CNc3nc(N4C[C@@H]5C[C@H]4CO5)nc4c(C5CC5)cnn34)nc2c1F [Example 173, 8-cyclopropyl-N-[(4,5-difluoro-1H-benzimidazol-2-yl)methyl]-2-[(1S,4S)-2-oxa-5-azabicyclo[2.2.1]heptan-5-yl]pyrazolo[1,5-a][1,3,5]triazin-4-amine] | 8.14 nM | > 20000 nM
COC(C)(C)CNc1nc(NCc2nc3ccccc3[nH]2)n2ncc(Br)c2n1 [Example 236, N4-(1H-benzimidazol-2-ylmethyl)-8-bromo-N2-(2-methoxy-2-methyl-propyl)pyrazolo[1,5-a][1,3,5]triazine-2,4-diamine] | 97.4 nM | > 17900 nM
Brc1cnn2c(NCc3nc4ccccc4[nH]3)nc(N3CC4CCC3CN4)nc12 (centres unmarked) [Example 220, N-(1H-benzimidazol-2-ylmethyl)-8-bromo-2-(2,5-diazabicyclo[2.2.2]octan-2-yl)pyrazolo[1,5-a][1,3,5]triazin-4-amine] | 7.04 nM | 5550 nM
COc1cccc2[nH]c(CNc3nc(N4CCN(C)CC4)nc4c(C5CC5)cnn34)nc12 [Example 197, 8-cyclopropyl-N-[(4-methoxy-1H-benzimidazol-2-yl)methyl]-2-(4-methylpiperazin-1-yl)pyrazolo[1,5-a][1,3,5]triazin-4-amine] | 4.99 nM | 9530 nM
Clc1cnn2c(NCc3nc4ccccc4[nH]3)nc(N3CCOCC3)nc12 [Example 15, N-[(1H-benzimidazol-2-yl)methyl]-8-chloro-2-(morpholin-4-yl)pyrazolo[1,5-a][1,3,5]triazin-4-amine] | 29.5 nM | 6020 nM
